# Test results taken from article PMC3366976, “Tuning the Drug Efflux Activity of an ABC Transporter in vivo by in vitro Selected DARPin Binders” (PLoS ONE, 2012).
# Target: T1, LmrCD (Lactococcus cremoris, UniProt A2RI37+A2RI38, A2RI37:C179R)
# T1 construct: gene lmrC
# Assay: biochemical
# T1 sequence (A2RI37 entry or part of it C179R): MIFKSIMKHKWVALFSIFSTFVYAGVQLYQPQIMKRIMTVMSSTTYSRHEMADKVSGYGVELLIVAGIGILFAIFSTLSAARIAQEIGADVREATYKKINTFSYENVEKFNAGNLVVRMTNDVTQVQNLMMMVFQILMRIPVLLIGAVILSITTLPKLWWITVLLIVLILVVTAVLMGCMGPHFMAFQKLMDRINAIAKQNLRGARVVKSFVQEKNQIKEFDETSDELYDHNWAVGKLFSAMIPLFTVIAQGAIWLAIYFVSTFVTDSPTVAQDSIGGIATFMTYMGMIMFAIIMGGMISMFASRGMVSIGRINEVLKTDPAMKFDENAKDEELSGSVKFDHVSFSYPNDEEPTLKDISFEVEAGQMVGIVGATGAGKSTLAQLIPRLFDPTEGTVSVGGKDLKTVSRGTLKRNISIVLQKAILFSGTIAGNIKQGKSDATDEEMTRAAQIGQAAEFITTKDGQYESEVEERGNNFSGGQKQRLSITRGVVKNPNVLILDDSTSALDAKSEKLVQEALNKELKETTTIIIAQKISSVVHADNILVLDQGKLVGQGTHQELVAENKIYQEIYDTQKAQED
# T1 sequence (A2RI38 entry or part of it): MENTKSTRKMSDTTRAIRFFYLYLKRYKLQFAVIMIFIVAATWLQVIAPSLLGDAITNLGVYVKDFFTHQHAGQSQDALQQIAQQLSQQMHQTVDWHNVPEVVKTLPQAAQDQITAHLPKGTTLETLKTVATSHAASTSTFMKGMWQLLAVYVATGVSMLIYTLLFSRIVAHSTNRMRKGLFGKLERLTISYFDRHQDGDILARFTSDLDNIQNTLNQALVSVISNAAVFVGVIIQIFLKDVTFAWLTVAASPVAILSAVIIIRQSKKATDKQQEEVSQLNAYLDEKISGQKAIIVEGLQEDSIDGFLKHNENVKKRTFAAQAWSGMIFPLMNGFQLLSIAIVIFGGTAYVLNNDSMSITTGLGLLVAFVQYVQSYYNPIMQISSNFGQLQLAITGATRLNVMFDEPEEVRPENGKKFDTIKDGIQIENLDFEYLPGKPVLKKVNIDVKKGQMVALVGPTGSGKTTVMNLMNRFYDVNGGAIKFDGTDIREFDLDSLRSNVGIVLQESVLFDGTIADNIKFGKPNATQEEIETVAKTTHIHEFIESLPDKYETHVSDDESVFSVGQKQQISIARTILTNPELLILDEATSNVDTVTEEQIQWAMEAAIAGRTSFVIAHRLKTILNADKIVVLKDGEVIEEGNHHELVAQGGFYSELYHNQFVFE
smiles,measurement,value
[O]=[V]([OH])([OH])[OH] [orthovanadate],IC50,120 µM
